The values below are quoted from earlier work in patent US10645923B2, “Insect bait” (priority 2010, dated 2020).

The subject of series [1] is V. Germanica. The note with it: hydramethylnon 2%, after 72 hours.
The subject of series [2] is wasps. The note with it: beef baited with fipronil, North West Patagonia (Argentina).
Series [3] relates to Vespula spp. The note with it: treated areas.
Series [4] has as its system wasps. The note with it: fipronil versus sulfluramid; faster acting.

On to `CC1(C)CNC(=NN=C(/C=C/c2ccc(C(F)(F)F)cc2)/C=C/c2ccc(C(F)(F)F)cc2)NC1` [hydramethylnon], for which, in series [1], the “reduction of wasp populations” value is on record as 54%.

Turning to `N#Cc1nn(-c2c(Cl)cc(C(F)(F)F)cc2Cl)c(N)c1[S+]([O-])C(F)(F)F` (stereo not shown) [Fipronil], the “reduction of wasp densities” value in series [2] is recorded as 80-100%. Also, in series [3], the “reduction of colony activity” value is on record as 99.7%. The “concentration factor lower than sulfluramid at equal toxicity” value in series [4] is 1000 times.
